Experimental data as given in ChEMBL document CHEMBL4813985, “Lead optimization generates selenium-containing miconazole CYP51 inhibitors with improved pharmacological profile for the treatment of fungal infections” (Eur J Med Chem, 2021).
Converted amounts (≈) assume the structure as drawn. The source made the active and inactive calls. No cut-off for these calls is given here.

Legend:
Candida albicans [1] = assay: Antifungal activity against fluconazole-resistant Candida albicans 904 assessed as inhibition of microbial growth after 24 hrs by broth microdilution method; format: functional
[2] = biological target: T1, Lanosterol 14-alpha demethylase (Candida albicans (strain SC5314 / ATCC MYA-2876) (Yeast), UniProt P10613); assay: Inhibition of CYP51 in Candida albicans ATCC SC5314 assessed as Eburicol level at […] ug/ml after 16 hrs by GC-MS analysis (reference value: 0%); set-up: scale not given: the % may be the effect or the level left; details: candida albicans sc5314, 16 h, dose 0.125 µg/ml
T1 sequence (P10613 whole entry): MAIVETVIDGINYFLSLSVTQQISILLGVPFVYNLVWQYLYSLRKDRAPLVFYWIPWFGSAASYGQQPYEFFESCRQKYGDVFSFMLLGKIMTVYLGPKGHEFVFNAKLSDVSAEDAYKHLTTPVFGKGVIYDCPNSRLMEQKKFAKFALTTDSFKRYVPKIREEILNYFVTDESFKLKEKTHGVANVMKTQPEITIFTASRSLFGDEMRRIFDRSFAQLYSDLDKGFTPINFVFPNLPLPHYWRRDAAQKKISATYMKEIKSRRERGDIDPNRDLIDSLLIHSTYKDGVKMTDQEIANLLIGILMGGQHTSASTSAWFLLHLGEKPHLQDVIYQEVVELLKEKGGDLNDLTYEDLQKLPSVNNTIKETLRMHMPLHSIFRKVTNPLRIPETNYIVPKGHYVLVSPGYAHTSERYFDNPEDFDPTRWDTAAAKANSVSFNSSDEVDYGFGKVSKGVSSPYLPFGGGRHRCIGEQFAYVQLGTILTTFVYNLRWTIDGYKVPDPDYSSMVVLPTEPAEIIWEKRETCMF

[3] = biological target: T1, Lanosterol 14-alpha demethylase; assay: Inhibition of CYP51 in Candida albicans ATCC SC5314 assessed as lanosterol level at […] ug/ml after 16 hrs by GC-MS analysis (reference value: 1.7%); set-up: scale not given: the % may be the effect or the level left; details: candida albicans sc5314, 16 h, dose 0.125 µg/ml
[4] = biological target: T1, Lanosterol 14-alpha demethylase; assay: Inhibition of CYP51 in Candida albicans ATCC SC5314 assessed as ergosterol level at 0.03125 ug/ml after 16 hrs by GC-MS analysis (reference value: 98.3%); set-up: scale not given: the % may be the effect or the level left; details: candida albicans sc5314, 16 h, at 0.03125 µg/mL
[5] = biological target: T1, Lanosterol 14-alpha demethylase; assay: Inhibition of CYP51 in Candida albicans ATCC SC5314 assessed as Eburicol level at 0.5 ug/ml after 16 hrs by GC-MS analysis (reference value: 0%); set-up: scale not given: the % may be the effect or the level left; details: candida albicans sc5314, 16 h, at 0.5 µg/mL
Candida albicans [6] = assay: Antifungal activity against fluconazole-resistant Candida albicans 632 assessed as inhibition of microbial growth after 24 hrs by broth microdilution method; format: functional
Candida albicans [7] = assay: Antifungal activity against Candida albicans CPCC400616 measured after 24 hrs by broth microdilution assay; format: functional
Candida albicans [8] = assay: Antifungal activity against fluconazole-resistant Candida albicans 17# assessed as inhibition of microbial growth after 24 hrs by broth microdilution method; format: functional
Candida albicans [9] = assay: Antifungal activity against Candida albicans ATCC SC5314 measured after 24 hrs by broth microdilution assay; format: functional
[10] = biological target: T1, Lanosterol 14-alpha demethylase; assay: Inhibition of CYP51 in Candida albicans ATCC SC5314 assessed as Eburicol level at 8 ug/ml after 16 hrs by GC-MS analysis (reference value: 0%); set-up: scale not given: the % may be the effect or the level left; details: candida albicans sc5314, 16 h, at 8 µg/mL
[11] = biological target: T1, Lanosterol 14-alpha demethylase; assay: Inhibition of CYP51 in Candida albicans ATCC SC5314 assessed as Obtusifoliol level at […] ug/ml after 16 hrs by GC-MS analysis (reference value: 0%); set-up: scale not given: the % may be the effect or the level left; details: candida albicans sc5314, 16 h, dose 0.125 µg/ml
Candida albicans [12] = assay: Antifungal activity against fluconazole-resistant Candida albicans 901 assessed as inhibition of microbial growth after 24 hrs by broth microdilution method; format: functional
[13] = biological target: T1, Lanosterol 14-alpha demethylase; assay: Inhibition of CYP51 in Candida albicans ATCC SC5314 assessed as lanosterol level at 0.5 ug/ml after 16 hrs by GC-MS analysis (reference value: 1.7%); set-up: scale not given: the % may be the effect or the level left; details: candida albicans sc5314, 16 h, at 0.5 µg/mL
Candida parapsilosis = assay: Antifungal activity against Candida parapsilosis ATCC 22019 measured after 24 hrs by broth microdilution assay; format: functional; details: Lodderomyces parapsilosis
[14] = biological target: T1, Lanosterol 14-alpha demethylase; assay: Inhibition of CYP51 in Candida albicans ATCC SC5314 assessed as Eburicol level at 2 ug/ml after 16 hrs by GC-MS analysis (reference value: 0%); set-up: scale not given: the % may be the effect or the level left; details: candida albicans sc5314, 16 h, at 2 µg/mL
[15] = biological target: T1, Lanosterol 14-alpha demethylase; assay: Inhibition of CYP51 in Candida albicans ATCC SC5314 assessed as Eburicol level at 0.03125 ug/ml after 16 hrs by GC-MS analysis (reference value: 0%); set-up: scale not given: the % may be the effect or the level left; details: candida albicans sc5314, 16 h, at 0.03125 µg/mL
Candida albicans [16] = assay: Anti-biofilm activity in Candida albicans CPCC400616 assessed as inhibition of biofilm formation incubated for 24 hrs with 24 hrs precultured fungal suspension by XTT assay; format: functional
[17] = biological target: T1, Lanosterol 14-alpha demethylase; assay: Inhibition of CYP51 in Candida albicans ATCC SC5314 assessed as Obtusifoliol level at 8 ug/ml after 16 hrs by GC-MS analysis (reference value: 0%); set-up: scale not given: the % may be the effect or the level left; details: candida albicans sc5314, 16 h, at 8 µg/mL
[18] = biological target: T1, Lanosterol 14-alpha demethylase; assay: Inhibition of CYP51 in Candida albicans ATCC SC5314 assessed as lanosterol level at 8 ug/ml after 16 hrs by GC-MS analysis (reference value: 1.7%); set-up: scale not given: the % may be the effect or the level left; details: candida albicans sc5314, 16 h, at 8 µg/mL
[19] = biological target: T1, Lanosterol 14-alpha demethylase; assay: Inhibition of CYP51 in Candida albicans ATCC SC5314 assessed as ergosterol level at 8 ug/ml after 16 hrs by GC-MS analysis (reference value: 98.3%); set-up: scale not given: the % may be the effect or the level left; details: candida albicans sc5314, 16 h, at 8 µg/mL
[20] = biological target: T1, Lanosterol 14-alpha demethylase; assay: Inhibition of CYP51 in Candida albicans ATCC SC5314 assessed as lanosterol level at 0.03125 ug/ml after 16 hrs by GC-MS analysis (reference value: 1.7%); set-up: scale not given: the % may be the effect or the level left; details: candida albicans sc5314, 16 h, at 0.03125 µg/mL
[21] = biological target: T1, Lanosterol 14-alpha demethylase; assay: Inhibition of CYP51 in Candida albicans ATCC SC5314 assessed as ergosterol level at […] ug/ml after 16 hrs by GC-MS analysis (reference value: 98.3%); set-up: scale not given: the % may be the effect or the level left; details: candida albicans sc5314, 16 h, dose 0.125 µg/ml
Aspergillus fumigatus = assay: Antifungal activity against Aspergillus fumigatus CMGCC3.7795 measured after 72 hrs by broth microdilution assay; format: functional
Candida albicans [22] = assay: Antifungal activity against Candida albicans ATCC SC5314 infected in mouse model of candidiasis assessed as reduction in kidney fungal burden at 0.6 mg/kg/day, ip dosed at 2 hrs post infection and dosed for 4 days; format: functional, organism-based; details: time 4.0 day
[23] = biological target: T1, Lanosterol 14-alpha demethylase; assay: Inhibition of CYP51 in Candida albicans ATCC SC5314 assessed as Obtusifoliol level at 0.03125 ug/ml after 16 hrs by GC-MS analysis (reference value: 0%); set-up: scale not given: the % may be the effect or the level left; details: candida albicans sc5314, 16 h, at 0.03125 µg/mL
[24] = biological target: T1, Lanosterol 14-alpha demethylase; assay: Inhibition of CYP51 in Candida albicans ATCC SC5314 assessed as Obtusifoliol level at 2 ug/ml after 16 hrs by GC-MS analysis (reference value: 0%); set-up: scale not given: the % may be the effect or the level left; details: candida albicans sc5314, 16 h, at 2 µg/mL
Cryptococcus neoformans = assay: Antifungal activity against Cryptococcus neoformans CMGCC2.3161 measured after 72 hrs by broth microdilution assay; format: functional
[Candida] zeylanoides = Antifungal activity against Candida zeylanoides CMGCC2.3739 measured after 24 hrs by broth microdilution assay; format: functional; details: Dujonia zeylanoides
[25] = biological target: T1, Lanosterol 14-alpha demethylase; assay: Inhibition of CYP51 in Candida albicans ATCC SC5314 assessed as Obtusifoliol level at 0.5 ug/ml after 16 hrs by GC-MS analysis (reference value: 0%); set-up: scale not given: the % may be the effect or the level left; details: candida albicans sc5314, 16 h, at 0.5 µg/mL
Pichia kudriavzevii = assay: Antifungal activity against Candida krusei AS2.1045 measured after 24 hrs by broth microdilution assay; format: functional
Nakaseomyces glabratus = assay: Antifungal activity against Candida glabrata measured after 24 hrs by broth microdilution assay; format: functional
Candida albicans [26] = assay: Antifungal activity against fluconazole-resistant Candida albicans CaR assessed as inhibition of microbial growth after 24 hrs by broth microdilution method; format: functional
[27] = biological target: T1, Lanosterol 14-alpha demethylase; assay: Inhibition of CYP51 in Candida albicans ATCC SC5314 assessed as ergosterol level at 2 ug/ml after 16 hrs by GC-MS analysis (reference value: 98.3%); set-up: scale not given: the % may be the effect or the level left; details: candida albicans sc5314, 16 h, at 2 µg/mL
[28] = biological target: T1, Lanosterol 14-alpha demethylase; assay: Inhibition of CYP51 in Candida albicans ATCC SC5314 assessed as ergosterol level at 0.5 ug/ml after 16 hrs by GC-MS analysis (reference value: 98.3%); set-up: scale not given: the % may be the effect or the level left; details: candida albicans sc5314, 16 h, at 0.5 µg/mL
[29] = biological target: T1, Lanosterol 14-alpha demethylase; assay: Inhibition of CYP51 in Candida albicans ATCC SC5314 assessed as lanosterol level at 2 ug/ml after 16 hrs by GC-MS analysis (reference value: 1.7%); set-up: scale not given: the % may be the effect or the level left; details: candida albicans sc5314, 16 h, at 2 µg/mL

## OC(Cn1cncn1)(Cn1cncn1)c1ccc(F)cc1F [FLUCONAZOLE]
Candida albicans [1]
  MIC: > 128 µg/mL
[2]
  Activity: 5.3%
[3]
  Activity: 12.4%
[4]
  Activity: 86.34%
[5]
  Activity: 6.7%
Candida albicans [6]
  MIC: > 128 µg/mL
Candida albicans [7]
  MIC: 4 µg/mL (≈ 13.1 µM)
Candida albicans [8]
  MIC: 128 µg/mL
Candida albicans [9]
  MIC: 1 µg/mL (≈ 3.27 µM)
[10]
  Activity: 70.3%
[11]
  Activity: 1.6%
Candida albicans [12]
  MIC: > 128 µg/mL
[13]
  Activity: 11.6%
Candida parapsilosis
  MIC: 4 µg/mL (≈ 13.1 µM)
[14]
  Activity: 63.5%
[15]
  Activity: 2.9%
Candida albicans [16]
  MIC: > 1020 µg/mL
[17]
  Activity: 11.4%
[18]
  Activity: 14.1%
[19]
  Activity: 4.2%
[20]
  Activity: 9.8%
[21]
  Activity: 80.8%
Aspergillus fumigatus
  MIC: > 128 µg/mL
Candida albicans [22]
  Activity: Active
[23]
  Activity: 1%
[24]
  Activity: 9.5%
Cryptococcus neoformans
  MIC: 4 µg/mL (≈ 13.1 µM)
[Candida] zeylanoides
  MIC: 4 µg/mL (≈ 13.1 µM)
[25]
  Activity: 2.9%
Pichia kudriavzevii
  MIC: 32 µg/mL (≈ 104 µM)
Nakaseomyces glabratus
  MIC: 32 µg/mL (≈ 104 µM)
Candida albicans [26]
  MIC: > 128 µg/mL
[27]
  Activity: 19.8%
[28]
  Activity: 78.9%
[29]
  Activity: 7.2%
